Structures are written as SMILES. Where a name gives a salt, the structure may show the parent alone. Read-outs that look alike come from different tables or passages of the source.

For one assay, the target named is hERG channel (Homo sapiens (Human), UniProt Q12809). Briefly: Cardiac safety evaluation, hERG study (QPatch whole-cell recording). The class given is cell-based. Particulars: CHO cell line expressing hERG channel. How it is done:
In this experiment, a CHO cell line stably transfected with hERG cDNA and expressing p15 hERG channel was used. Cells were incubated at 37° C. in a humidified incubator containing 5% CO2 in medium (Ham's F12, 10% v/v FBS, 100 μg/mL hygromycin B, 100 μg/mL geneticin) (from Invitrogen). Cells were grown under the above conditions and reached approximately 80-90% of the confluency. Cells were treated with Detachin (Genlantis) for 3 to 5 minutes. The medium was titrated 15 to 20 times at 37° C., and then the cells were resuspended in CHO-S-SFM II medium (serum-free medium, Invitrogen) buffered with HEPES (25 mM). Cells used for QPatch studies must meet the following criteria: Most suspension cells should be single and isolated under microscopy; viability should be greater than 95%; cell density in the final suspension should be in the range of 3 to 8×10^6 cells/mL before application to the QPatch stir chamber. Cells meeting the above conditions can be used for recordings within 4 hours of harvest.
Test compounds were made into 10 mM DMSO stock solutions. Six doses (30, 10, 3, 1, 0.3 and 0.1 μM) were selected to obtain the fitted curves and IC50. The final DMSO concentration was 0.1% or less. The IC50 of the positive control cisapride was assessed at doses of 3, 1, 0.3, 0.1, 0.03 and 0.01 μM, respectively. Composition of […] for electrophysiological recordings: CaCl2 2 mM, MgCl2 1 mM, KCl 4 mM, NaCl 145 mM, Glucose 10 mM, HEPES 10 mM, pH 7.4 (NaOH), composition of external solution: CaCl2 […], MgCl2 1.75 mM, KCl 120 mM, HEPES 10 mM, EGTA 5 mM, Na-ATP 4 mM, pH 7.25 (KOH) (all reagents used were from sigma).
Whole-cell recordings were performed using automated QPatch (Sophion Biosciences, Denmark). Cells were recorded for 120 s to assess current stability. The above voltages were then applied to the cells every 15 s throughout the procedure. […]
The data were analyzed with Sophion Assay software (determination software V5.0), Microsoft Excel and Graphpad Prism 5.0 to obtain IC50 of compounds.

For another assay, the target named is CYP2D6 (Homo sapiens (Human), UniProt P10635). Briefly: Cytochrome oxidase P450 inhibition study, CYP2D6. The class given is in vitro ADME. The settings on record: human liver microsomes; read-out: IC50 2D6. How it is done:
(§1) LC-MS/MS methods were used to evaluate the inhibitory effects of compounds on CYP2C19, 2D6 and 3A4 subtypes. In this method, the test compound was mixed with a solution of human liver microsomes containing CYP model substrates, and incubated together under the addition of NADPH, then the inhibitory IC50 of the compound on CYP2C19, 2D6 and 3A4 was calculated by measuring the amount of metabolites of the model substrate in the reaction solution. The specific experimental method is as follows:
(§2) Compounds to be tested were prepared as stock solutions at 10 mM concentration with DMSO and then diluted to 4 mM with acetonitrile solution. At the same time, the corresponding reference inhibitor solutions for CYP subtypes were prepared, for example, the reference inhibitor was Ketoconazole, then these two compounds were prepared separately ([…] of inhibitor DMSO stock solution+[…] of acetonitrile), and the samples prepared under the above conditions were at 400× concentration. Then, the above solution was 3-fold diluted with DMSO/acetonitrile mixture (v/v: 40/60) to prepare the final test solution, and seven concentration points were set for each test compound, and the initial test final concentration was 10 μM. […]
(§3) […] of human liver microsome solution (0.2 mg/mL) was added to each well containing the test compound in the 96-well plate, and then 2 mL of the final test sample of test compounds prepared by serial dilution as described above was added thereto; for each well corresponding to the reference inhibitors, […] of human liver microsome solution (0.2 mg/mL) and 1 mL of the final test sample were added. […] The inhibition rate was determined by comparing the amount of model substrate metabolites at each test concentration without test substance addition, in the GraphPad Prism 5.0 software, the logarithm of the test concentration was used as the abscissa and the inhibition rate was used as the ordinate to perform a linear regression (Sigmoidal (non-linear) dose-response model) analysis to obtain the IC50 value of the test compound.

Another assay addresses ATR/ATRIP kinase (Homo sapiens (Human), UniProt Q13535). Briefly: ATR enzyme assay (HTRF, phosphorylation of substrate protein P53). The class given is biochemical. Particulars: substrate P53, TR-FRET. How it is done: In this experiment, the phosphorylation level of substrate protein P53 (Eurofins, 14-952) was detected by HTRF technology to measure the activity of ATR/ATRIP (Eurofins, 14-953) kinase. Reaction buffer (25 mM HEPES pH 8.0, 0.01% Brij-35, 1% Glycerol, 5 mM DTT, 1 mg/mL BSA), termination buffer (12.5 mM HEPES pH 8.0, 0.005% Brij-35, 0.5% Glycerol, 250 mM EDTA) and assay buffer (50 mM HEPES pH 7.0, 150 mM NaCl, 267 mM KF, 0.1% sodium cholate, 0.01% Tween 20) were prepared in advance. ATR/ATRIP was diluted with reaction buffer to a working solution of 2 ng/μL, and the substrate protein P53 was diluted with reaction buffer to a working solution of 80 nM, and 4 nM of ATP (Sigma, A2383) working solution (containing 40 mM MnCl2) was prepared with reaction buffer. The compound was 3-fold diluted with DMSO, then diluted with reaction buffer into a working solution, then added to a 384-well plate at 2.5 μL/well, and centrifuged at 1500 rpm for 40 s. Then 2.5 μL of ATR/ATRIP working solution, P53 working solution and ATP working solution were added into the 384-well plate, centrifuged at 1500 rpm for 40 s and reacted at room temperature for 30 minutes. After the reaction was completed, 5 μL of termination buffer was added to each well, and centrifuged at 1500 rpm for 40 s. Antibody working solution containing 0.083 μg/mL anti-phospho-p53 (Ser15)-K (CisBio, cat. 61P08KAE) and 5 μg/mL anti-GST-d2 (CisBio, cat. 61GSTDLA) was prepared with assay buffer and added to the 384-well plate at 5 μL/well, then centrifuged at 1500 rpm for 40 s and reacted overnight at room temperature. Microplate reader (Tecan, Infinite M1000 Pro) was used to detect TR-FRET, and the data were analyzed with Graphpad software, and the four-parameter equation was used to fit the curve and calculate the IC50 value of the inhibitor (Table 1).

The target of another assay is CYP3A4 (Homo sapiens (Human), UniProt P08684). Briefly: Cytochrome oxidase P450 inhibition study, CYP3A4. The class given is in vitro ADME. Particulars: human liver microsomes. Here is the method: as §1
Compounds to be tested were prepared as stock solutions at 10 mM concentration with DMSO and then diluted to 4 mM with acetonitrile solution. At the same time, the corresponding reference inhibitor solutions for CYP subtypes were prepared, for example, the reference inhibitor was Ketoconazole, then these two compounds were prepared separately ([…] of inhibitor DMSO stock solution+[…] of acetonitrile), and the samples prepared under the above conditions were at 400× concentration. Then, the above solution was 3-fold diluted with DMSO/acetonitrile mixture (v/v: 40/60) to prepare the final test solution, and seven concentration points were set for each test compound, and the initial test final concentration was 10 μM. NADPH, CYP enzyme model substrate and human liver microsome solution were diluted to appropriate concentrations with pre-warmed potassium phosphate buffer (0.1 M, pH 7.4), respectively. The human liver microsome solution was purchased from BD Gentest (20 mg/mL, Corning, article number #452161).
[…] of human liver microsome solution (0.2 mg/mL) was added to each well containing the test compound in the 96-well plate, and then 2 mL of the final test sample of test compounds prepared by serial dilution as described above was added thereto; for each well corresponding to the reference inhibitors, […] of human liver microsome solution (0.2 mg/mL) and 1 mL of the final test sample were added. […] of the prepared corresponding model substrate was dispensed into a 96-well plate, and the microsome solution was mixed evenly, then 30 mL of the test compound/reference inhibitor-human liver microsome mixture was taken and transferred to the 96-well plate containing the substrate, and the mixture was mixed well and preheated at 37° C. for 5 minutes, then […] of 8 mM NADPH solution preheated at 37° C. was added thereto to start the reaction. A duplicate well control and a blank control without the addition of test substances were set at the same time. The 96-well plate containing a total volume of […] of reaction solution was incubated at 37° C. After the incubation, 120 μL of cold acetonitrile solution containing internal standard was added to each well to terminate the reaction, and then the 96-well plate was shaked on a microplate shaker for 5 minutes (600 rpm/min), and put into a centrifuge and centrifuged for 20 minutes at 6000 rpm, 4° C. Then 40 μL of supernatant from each well was transferred to another 96-well plate, and 80 μL of ultrapure water was added to each well, put into a shaker and mixed for 5 minutes (600 rpm/min), and centrifuged at 6000 rpm, 4° C., for 20 minutes. Then LC-MS/MS detection was performed. The inhibition rate was determined by comparing the amount of model substrate metabolites at each test concentration without test substance addition, in the GraphPad Prism 5.0 software, the logarithm of the test concentration was used as the abscissa and the inhibition rate was used as the ordinate to perform a linear regression (Sigmoidal (non-linear) dose-response model) analysis to obtain the IC50 value of the test compound.

The next assay has as its target CYP2C19 (Homo sapiens (Human), UniProt P33261). Briefly: Cytochrome oxidase P450 inhibition study, CYP2C19. The class given is in vitro ADME. Particulars: human liver microsomes; read-out: IC50 2C19. Here is the method: as §1, §2, §3

Sequence of CYP3A4 (P08684 whole entry): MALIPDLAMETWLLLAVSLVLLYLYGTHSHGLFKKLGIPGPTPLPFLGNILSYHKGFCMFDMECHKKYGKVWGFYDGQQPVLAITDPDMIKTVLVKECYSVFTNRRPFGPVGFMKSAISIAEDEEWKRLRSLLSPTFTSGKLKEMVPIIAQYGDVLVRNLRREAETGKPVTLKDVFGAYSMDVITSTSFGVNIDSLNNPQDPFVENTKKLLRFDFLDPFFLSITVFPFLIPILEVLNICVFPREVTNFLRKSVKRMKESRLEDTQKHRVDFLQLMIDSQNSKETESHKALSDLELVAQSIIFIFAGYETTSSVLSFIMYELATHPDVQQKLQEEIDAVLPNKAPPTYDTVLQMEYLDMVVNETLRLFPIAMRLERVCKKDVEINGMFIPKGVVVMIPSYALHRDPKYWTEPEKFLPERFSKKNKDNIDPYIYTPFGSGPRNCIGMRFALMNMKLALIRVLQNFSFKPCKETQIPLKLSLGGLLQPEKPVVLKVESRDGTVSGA
Sequence of hERG channel (Q12809 whole entry): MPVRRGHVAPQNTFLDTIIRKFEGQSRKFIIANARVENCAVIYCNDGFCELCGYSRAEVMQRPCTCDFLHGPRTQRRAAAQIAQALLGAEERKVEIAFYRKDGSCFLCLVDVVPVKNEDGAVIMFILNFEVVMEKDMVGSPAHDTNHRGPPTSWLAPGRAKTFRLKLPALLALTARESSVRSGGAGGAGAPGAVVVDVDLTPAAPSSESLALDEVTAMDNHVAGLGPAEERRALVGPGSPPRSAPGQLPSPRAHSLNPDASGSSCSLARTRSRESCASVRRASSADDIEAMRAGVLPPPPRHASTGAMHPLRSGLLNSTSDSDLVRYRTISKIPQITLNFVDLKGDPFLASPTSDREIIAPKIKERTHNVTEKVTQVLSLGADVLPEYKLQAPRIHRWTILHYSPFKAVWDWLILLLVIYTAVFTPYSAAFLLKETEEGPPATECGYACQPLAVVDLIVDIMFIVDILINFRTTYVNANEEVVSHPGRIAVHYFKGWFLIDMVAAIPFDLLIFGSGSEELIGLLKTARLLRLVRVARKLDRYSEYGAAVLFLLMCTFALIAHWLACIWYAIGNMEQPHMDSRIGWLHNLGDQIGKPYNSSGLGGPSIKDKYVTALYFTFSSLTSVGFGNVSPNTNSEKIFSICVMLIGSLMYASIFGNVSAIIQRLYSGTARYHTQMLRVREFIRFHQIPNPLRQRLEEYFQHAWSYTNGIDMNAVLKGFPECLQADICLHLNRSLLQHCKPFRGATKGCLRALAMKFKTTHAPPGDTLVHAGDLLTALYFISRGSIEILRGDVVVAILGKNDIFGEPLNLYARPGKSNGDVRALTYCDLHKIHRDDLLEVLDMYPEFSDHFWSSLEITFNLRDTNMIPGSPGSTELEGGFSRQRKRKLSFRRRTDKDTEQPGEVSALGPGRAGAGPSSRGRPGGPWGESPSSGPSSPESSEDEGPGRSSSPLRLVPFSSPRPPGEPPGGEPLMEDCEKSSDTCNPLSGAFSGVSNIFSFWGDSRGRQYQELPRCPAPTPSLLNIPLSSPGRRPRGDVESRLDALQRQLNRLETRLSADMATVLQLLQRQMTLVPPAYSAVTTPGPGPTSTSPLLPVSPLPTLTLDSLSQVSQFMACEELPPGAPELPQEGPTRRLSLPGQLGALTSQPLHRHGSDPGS
Sequence of ATR/ATRIP kinase (Q13535 whole entry): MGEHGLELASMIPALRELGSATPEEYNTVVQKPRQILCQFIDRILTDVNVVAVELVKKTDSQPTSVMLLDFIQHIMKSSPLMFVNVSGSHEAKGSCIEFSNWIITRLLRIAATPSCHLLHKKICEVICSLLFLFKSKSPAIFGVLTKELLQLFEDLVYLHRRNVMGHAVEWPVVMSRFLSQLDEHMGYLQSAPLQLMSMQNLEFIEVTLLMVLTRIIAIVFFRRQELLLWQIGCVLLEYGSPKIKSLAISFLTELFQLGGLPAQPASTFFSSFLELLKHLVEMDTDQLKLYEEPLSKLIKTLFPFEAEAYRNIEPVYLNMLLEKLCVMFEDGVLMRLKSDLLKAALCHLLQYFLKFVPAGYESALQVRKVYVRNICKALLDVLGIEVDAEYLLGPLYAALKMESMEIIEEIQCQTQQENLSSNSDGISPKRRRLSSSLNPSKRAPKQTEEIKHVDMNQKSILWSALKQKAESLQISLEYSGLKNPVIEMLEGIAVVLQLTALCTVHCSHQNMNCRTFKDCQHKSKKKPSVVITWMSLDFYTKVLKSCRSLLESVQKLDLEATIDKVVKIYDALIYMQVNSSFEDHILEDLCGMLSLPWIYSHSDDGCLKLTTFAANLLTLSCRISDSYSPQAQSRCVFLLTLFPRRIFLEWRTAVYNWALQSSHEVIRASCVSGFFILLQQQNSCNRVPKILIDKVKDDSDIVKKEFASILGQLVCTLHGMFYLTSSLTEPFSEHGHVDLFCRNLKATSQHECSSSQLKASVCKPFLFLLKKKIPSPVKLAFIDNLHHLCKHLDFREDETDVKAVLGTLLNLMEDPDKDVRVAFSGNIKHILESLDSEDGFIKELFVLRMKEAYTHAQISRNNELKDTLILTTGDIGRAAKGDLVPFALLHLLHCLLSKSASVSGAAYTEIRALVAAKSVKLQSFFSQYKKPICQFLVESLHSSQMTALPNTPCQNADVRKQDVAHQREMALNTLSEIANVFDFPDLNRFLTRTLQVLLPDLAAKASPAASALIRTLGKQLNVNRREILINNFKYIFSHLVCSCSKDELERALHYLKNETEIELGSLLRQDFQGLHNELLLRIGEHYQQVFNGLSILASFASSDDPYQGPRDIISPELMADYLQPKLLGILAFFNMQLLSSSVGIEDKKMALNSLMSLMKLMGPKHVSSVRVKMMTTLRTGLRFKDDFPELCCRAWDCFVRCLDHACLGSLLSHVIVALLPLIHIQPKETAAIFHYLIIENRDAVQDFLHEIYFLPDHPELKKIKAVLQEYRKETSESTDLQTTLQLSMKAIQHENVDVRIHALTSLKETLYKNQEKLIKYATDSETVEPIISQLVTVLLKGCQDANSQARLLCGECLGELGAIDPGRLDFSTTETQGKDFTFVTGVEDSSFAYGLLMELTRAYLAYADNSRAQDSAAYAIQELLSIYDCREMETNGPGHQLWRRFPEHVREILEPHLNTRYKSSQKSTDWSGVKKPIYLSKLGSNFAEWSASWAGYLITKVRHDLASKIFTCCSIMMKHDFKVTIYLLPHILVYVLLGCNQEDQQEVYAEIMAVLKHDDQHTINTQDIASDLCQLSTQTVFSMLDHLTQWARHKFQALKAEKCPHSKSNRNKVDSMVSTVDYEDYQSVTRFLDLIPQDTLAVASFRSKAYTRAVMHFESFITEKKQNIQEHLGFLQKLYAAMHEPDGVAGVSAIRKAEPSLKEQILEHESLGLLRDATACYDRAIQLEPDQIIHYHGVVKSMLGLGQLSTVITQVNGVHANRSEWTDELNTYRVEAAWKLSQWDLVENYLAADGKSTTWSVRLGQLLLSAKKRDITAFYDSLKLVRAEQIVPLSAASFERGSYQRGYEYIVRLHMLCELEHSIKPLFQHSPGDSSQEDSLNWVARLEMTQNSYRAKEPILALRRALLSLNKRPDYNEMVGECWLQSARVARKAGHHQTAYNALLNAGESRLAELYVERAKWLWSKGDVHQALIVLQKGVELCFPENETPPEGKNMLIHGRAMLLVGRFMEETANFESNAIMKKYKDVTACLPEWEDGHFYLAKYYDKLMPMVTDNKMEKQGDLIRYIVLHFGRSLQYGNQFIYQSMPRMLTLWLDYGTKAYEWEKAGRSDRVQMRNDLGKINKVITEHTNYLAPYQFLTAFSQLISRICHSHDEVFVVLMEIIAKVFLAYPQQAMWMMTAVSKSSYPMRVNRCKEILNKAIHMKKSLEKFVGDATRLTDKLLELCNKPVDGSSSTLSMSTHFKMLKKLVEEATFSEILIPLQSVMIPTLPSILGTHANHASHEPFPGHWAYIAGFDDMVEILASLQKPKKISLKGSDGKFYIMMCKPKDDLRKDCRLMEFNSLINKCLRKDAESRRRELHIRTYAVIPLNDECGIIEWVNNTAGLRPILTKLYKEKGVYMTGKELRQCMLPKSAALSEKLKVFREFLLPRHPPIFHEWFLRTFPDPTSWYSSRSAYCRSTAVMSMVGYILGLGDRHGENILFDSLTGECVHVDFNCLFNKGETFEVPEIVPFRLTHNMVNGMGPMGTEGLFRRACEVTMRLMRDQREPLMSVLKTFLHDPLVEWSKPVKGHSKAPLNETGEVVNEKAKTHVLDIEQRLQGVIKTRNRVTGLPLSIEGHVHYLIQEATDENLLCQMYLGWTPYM
Sequence of ATR/ATRIP kinase (Q8WXE1 whole entry partner): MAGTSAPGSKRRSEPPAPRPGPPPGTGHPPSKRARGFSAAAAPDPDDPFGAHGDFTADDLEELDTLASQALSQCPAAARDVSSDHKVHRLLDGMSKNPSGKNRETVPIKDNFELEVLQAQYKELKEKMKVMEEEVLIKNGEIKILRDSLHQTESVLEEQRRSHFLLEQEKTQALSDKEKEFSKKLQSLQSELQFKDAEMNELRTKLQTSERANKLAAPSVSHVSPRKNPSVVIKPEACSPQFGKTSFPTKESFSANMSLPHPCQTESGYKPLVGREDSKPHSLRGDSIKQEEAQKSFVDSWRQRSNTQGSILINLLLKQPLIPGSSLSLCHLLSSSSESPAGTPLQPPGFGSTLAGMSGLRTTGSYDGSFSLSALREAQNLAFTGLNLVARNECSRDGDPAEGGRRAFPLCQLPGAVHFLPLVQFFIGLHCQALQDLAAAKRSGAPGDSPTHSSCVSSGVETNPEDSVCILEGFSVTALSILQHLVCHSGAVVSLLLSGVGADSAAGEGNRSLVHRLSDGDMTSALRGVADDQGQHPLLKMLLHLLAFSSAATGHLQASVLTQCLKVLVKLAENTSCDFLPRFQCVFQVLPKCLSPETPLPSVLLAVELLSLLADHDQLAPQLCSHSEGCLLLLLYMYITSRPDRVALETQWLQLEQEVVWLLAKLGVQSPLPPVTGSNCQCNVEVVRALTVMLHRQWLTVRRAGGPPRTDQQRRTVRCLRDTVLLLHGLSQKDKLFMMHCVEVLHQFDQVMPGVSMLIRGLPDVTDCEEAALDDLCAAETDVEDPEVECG

For the molecule `C[C@@H]1COCCN1c1nc2c(cnn2-c2cc[nH]n2)c2c1ccn2S(=O)(=O)N(C)C` [Compound 3, (R)—N,N-dimethyl-4-(3-methylmorpholino)-6-(1H-pyrazol-3-yl)pyrazolo[3,4-b]pyrrolo[2,3-d]pyridine-1(6H)-sulfonamide trifluoroacetate], the IC50 was above 30 µM on hERG channel; above 10 µM at CYP2D6; 0.00051 µM at ATR/ATRIP kinase; above 10 µM on CYP3A4 (substrate Midazolam, read-out: IC50 3A4 (Midazolam)); above 10 µM on CYP3A4 (substrate Testosterone, read-out: IC50 3A4 (Testosterone)); above 10 µM on CYP2C19.

Source of the values: patent US20240025899A1, “TRIHETEROCYCLIC DERIVATIVE, AND PHARMACEUTICAL COMPOSITION AND APPLICATION THEREOF” (SHANGHAI DE NOVO PHARMATECH CO., LTD., priority 2020, published 2024).
